We go through 3 molecules from US6569904B1, “Agent for lowering endothelin levels” (Orion Corporation, priority 1998, dated 2003).

Type in all cases: in vivo, postmenopausal breast cancer patients
The subject of one data set is endothelin-1 (ET-1). Put plainly: Effect on endothelin-1 level in plasma of patients treated orally for one year. The note with it: for Plasma level of endothelin-1, at 6 months: at 6 months of oral treatment (toremifene 40 mg/d, tamoxifen 20 mg/d, estradiol valerate 2 mg/d); for Plasma level of endothelin-1, at 6 months / Plasma level of endothelin-1, at 12 months / Plasma level of endothelin-1, before treatment: mean±SE; for Plasma level of endothelin-1, at 12 months: at 12 months of oral treatment (toremifene 40 mg/d, tamoxifen 20 mg/d, estradiol valerate 2 mg/d); for Plasma level of endothelin-1, before treatment: baseline before treatment, breast cancer patients; for Effect on endothelin-1 level in patients during the treatment (in words): oral treatment for one year. As for the experimental part:
Effect of toremifene on endothelin-1 level in plasma
(§1) Postmenopausal breast cancer patients were treated with 40 mg/d toremifene (Fareston™) (n=19), 20 mg/d tamoxifen (Tadex™) (n=25) or 2 mg/d estradiol valerate (Progynova™)(n=14) orally for one year. The 44 patients of the antiestrogen groups had been operated on breast cancer 6-8 weeks before the trial. Plasma samples (10 ml) were collected before and at 6 and 12 months of each regimen, and plasma levels of endothelin-1 (ET-1) and nitrite/nitrate (NOx) were measured by established methods. The data (presented as mean±SE) were analyzed by two-way analysis of variance (ANOVA) for repeated measures. When differences were indicated by ANOVA, their significances at individual timepoints were calculated by means of a t-test for independent means (between-groups comparison) or a t-test for dependent means (comparison to baseline within a single group). For determination of correlation between two variables, the Pearsson coefficient was calculated.

The next data set deals with nitrite/nitrate (NOx). Put plainly: Plasma nitrite/nitrate (NOx) level in patients treated orally for one year. The note with it: mean±SE; for Plasma level of nitrite/nitrate, at 6 months: at 6 months of oral treatment; for Plasma level of nitrite/nitrate, at 12 months: at 12 months of oral treatment; for Plasma level of nitrite/nitrate, before treatment: baseline before treatment, breast cancer patients. As for the experimental part: as §1

Data set [1] in a line: Occurrence of thromboses and cerebrovascular accidents in three clinical adjuvant trials. Particulars: for Cerebrovascular accidents (number of occurrences) / Deep vein thromboses (number of occurrences): oral toremifene 40 mg/d (1120 patients) vs oral tamoxifen 20 mg/day (1110 patients) for 3 years, serious events. Here is the method:
Occurrence of thromboses and cerebrovascular accidents
In three clinical adjuvant trials effects of oral toremifene 40 mg/d was compared to oral tamoxifen 20 mg/day for 3 years in postmenopausal breast cancer patients. The occurrence of serious deep vein thromboses and serious cerebrovascular accidents in toremifen and tamoxifen groups are summarized in Table 2.

As for `CCCCC(=O)O[C@H]1CC[C@H]2[C@@H]3CCc4cc(O)ccc4[C@H]3CC[C@]12C` [Estrogen, estradiol valerate], in the data set with endothelin-1 (ET-1), the “Plasma level of endothelin-1, at 6 months” value was determined as 2.7 ± 0.2 ng/L; the “Plasma level of endothelin-1, at 12 months” value is 2.7 ± 0.2 ng/L; the “Plasma level of endothelin-1, before treatment” value came out at 2.8 ± 0.2 ng/L. In the data set with nitrite/nitrate (NOx), the “Plasma level of nitrite/nitrate, at 6 months” value was determined as 21.5 ± 3.2 µmol/L; the “Plasma level of nitrite/nitrate, at 12 months” value was found to be 18.5 ± 2.7 µmol/L; the “Plasma level of nitrite/nitrate, before treatment” value came to 25.8 ± 3.7 µmol/L.

For `CN(C)CCOc1ccc(/C(=C(/CCCl)c2ccccc2)c2ccccc2)cc1` [Toremifene, toremifene], in the data set with endothelin-1 (ET-1), the “Plasma level of endothelin-1, at 6 months” value amounted to 2.6 ± 0.2 ng/L; the “Plasma level of endothelin-1, at 12 months” value is 2.6 ± 0.2 ng/L; the “Plasma level of endothelin-1, before treatment” value was 3.0 ± 0.2 ng/L; the “Effect on endothelin-1 level in patients during the treatment (in words)” value is recorded as “significantly lowered endothelin-1 level”. In the data set on nitrite/nitrate (NOx), the “Plasma level of nitrite/nitrate, at 6 months” value was 21.0 ± 2.5 µmol/L; the “Plasma level of nitrite/nitrate, at 12 months” value was determined as 21.6 ± 3.1 µmol/L; the “Plasma level of nitrite/nitrate, before treatment” value is 23.4 ± 4.0 µmol/L. In addition, in data set [1], the “Cerebrovascular accidents (number of occurrences)” value was 2 and the “Deep vein thromboses (number of occurrences)” value is recorded as 7.

Consider `CC/C(=C(\c1ccccc1)c1ccc(OCCN(C)C)cc1)c1ccccc1` [Tamoxifen, tamoxifen], for which, in the data set with endothelin-1 (ET-1), the “Plasma level of endothelin-1, at 6 months” value came to 3.5 ± 0.2 ng/L; the “Plasma level of endothelin-1, at 12 months” value turned out to be 3.2 ± 0.2 ng/L; the “Plasma level of endothelin-1, before treatment” value turned out to be 3.5 ± 0.2 ng/L; the “Effect on endothelin-1 level in patients during the treatment (in words)” value was “no effect”. Besides, in the data set with nitrite/nitrate (NOx), the “Plasma level of nitrite/nitrate, at 6 months” value came to 22.8 ± 4.0 µmol/L; the “Plasma level of nitrite/nitrate, at 12 months” value was 20.4 ± 2.5 µmol/L; the “Plasma level of nitrite/nitrate, before treatment” value worked out at 20.6 ± 2.3 µmol/L. In data set [1], the “Cerebrovascular accidents (number of occurrences)” value stood at 14 and the “Deep vein thromboses (number of occurrences)” value is 13. In addition, in data set [1] (tamoxifen treated patients compared with toremifene treated patients), the “Vascular complications (deep vein thrombosis and cerebrovascular events), comparison in words” value is “clearly more vascular complications”.
